The target of one assay is T1, CaM (Bos taurus, UniProt P62157).
T1 construct: made in house; host or cells: E. coli BL21 (DE3)
As to the kind of experiment: Pull-down assay with immobilized protein and LSM libraries. It counts as binding, bovine. The conditions noted are these: 1:2 stoichiometry assumed, read-out: Surface mapping KD (apparent). An outline of the steps:
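CaM buffer was 20 mM HEPES pH 7.4, 150 mM NaCl, 5 mM CaCl2. LSM sublibrary members ([…]) incubated 30 min, RT, with equimolar His-tagged protein on Co-NTA resin. HPLC-MS measured unbound probes; bound fraction relative to resin-only background gave dissociation constants.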

For assay [1], the target named is T2, Gal-1 (Homo sapiens, UniProt P09382).
T2 construct: made in house; host or cells: E. coli BL21(DE3)
T2 sequence (P09382 whole entry): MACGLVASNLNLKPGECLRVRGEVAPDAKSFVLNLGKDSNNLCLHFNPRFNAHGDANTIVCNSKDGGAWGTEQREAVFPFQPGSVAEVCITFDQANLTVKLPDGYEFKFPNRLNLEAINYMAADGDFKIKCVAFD
As to the kind of experiment: Competition pull-down with lactose. Type of assay: binding. The settings on record: H14 library; lactose 10 mM; read-out: Surface mapping KD (apparent), competition. How it is done: Interactions between the H14 helical LSMs and the targets were abundant, but safe recognition of the native PPI interfaces on the targets is a criterion of druggability. To gain insight into the ability of the LSMs to detect orthosteric spots, we carried out pull-down assays in the presence of the native ligands (Table 2) of the targets (Fig. 5). For highlighting the effect of the competitor on the binding fingerprints, KD ratios and the LSM replacement percentages were calculated and are represented as heat maps (see ESI, Fig. S7 ^†). […] This could be explained by the glycan selective native recognition domain of the protein. We note that the replacement pattern for a single probe can, in theory, be complex. […] Moreover, a single probe can bind to both orthosteric and non-orthosteric spots, which limits overall displacement levels. To avoid overlooking interesting orthosteric weak binders, direct replacement levels were assessed (see ESI, Fig. S7 ^†).
Pull-down assay and data analysis
Pull-down assay. LSM sublibraries were screened separately as previously described.(2) Experiments were performed in the following buffers: (i) 20 mM pH 7.4 HEPES, 150 mM NaCl, 5 mM CaCl2 for CaM; (ii) 50 mM pH 7.4 HEPES, 150 mM NaCl, 1 mM TCEP, 1 mM CaCl2 for S100 proteins; (iii) 20 mM pH 7.4 HEPES, 150 mM NaCl, 1 mM TCEP for Gal-1 and (iv) 20 mM pH 7.4 HEPES, 150 mM NaCl for RecQ-WH. Assays were performed in paper filter spin cups (Thermo Scientific) with sample volumes of 100 µl. Hexahistidine-tagged proteins were immobilized on previously washed Co-NTA resin (TALON, Takara Bio USA, Inc., Mountain View, CA) in 64 µM final concentration. LSM sublibrary was added, in which each of the 64 library members were used at a concentration of 1 µM. Samples were incubated at room temperature for 30 min with shaking at 100 rpm. Then, samples were centrifuged at 1000 rpm for 2 min and washed with 100 µl pull-down buffer to remove unbound compounds.
The control experiments were performed using the same compounds and the resin but without the immobilized protein. In case of competitive assays, competitor peptides were added to LSM sublibrary samples in 200 µM final concentration. In the case of Gal-1, lactose (competitor) was used in a concentration of 10 mM. Experiments were performed at least twice. Mean […]
LC-MS methods and parameters. HPLC/ESI-MS analysis was used to characterize the samples from the pull-down assay. LC-MS analysis was performed with a Thermo Scientific Dionex UltiMate 3000 HPLC system interfaced to an LTQ ion trap mass spectrometer (Thermo Electron Corp., San Jose, CA, USA). Samples were injected onto an Aeris Widepore XB-C18 (250 x 4.6 mm) analytical HPLC column using gradient elution 5-80 % solution B during 25 minutes. For pull-down samples, eluent composition was 0.1% acetic acid in distilled water (Solution A) and 0.1% acetic acid in acetonitrile (solution B). Mass spectra were acquired in full scan mode from 200 to 2000 m/z range. For overlapping peaks, selective reaction monitoring (SRM) was […]
MS data analysis. Thermo Xcalibur 2.2 software was used for peak identification and integration. The majority of the foldameric fragments could be resolved independently via HPLC-MS/MS measurements based on molecular weight, MS fragmentation pattern and retention time. Peaks of some foldamers with β3-hIle or β3-hLeu in position R2 could not be resolved, these were integrated and averaged. In the processing method, each sample component was associated to a chromatographic peak based on previously identified mass (m/z) and retention time (ref (2) and Table S7-10). Using ICIS peak detection algorithm, the general detection and integration criteria were: smoothing points: 5, baseline window: 80, area noise factor: 5, peak noise factor: 10. Using these processing setups, all raw data files were reprocessed together and analyzed. Errors in peak identification during the automatic processing were corrected manually.
Calculation of the discussed parameters […]

A further assay deals with T3, S100B (Homo sapiens, UniProt P04271).
T3 construct: made in house; host or cells: Escherichia coli BL21(DE3)
T3 sequence (P04271 1-92): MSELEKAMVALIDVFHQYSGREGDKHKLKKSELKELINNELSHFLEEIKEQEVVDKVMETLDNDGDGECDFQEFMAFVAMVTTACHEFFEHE
As to the kind of experiment: Pull-down assay with immobilized protein and LSM libraries. The settings on record: 1:1 binding assumed, read-out: Surface mapping KD (apparent). It counts as binding. An outline of the steps: (§1)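 Buffers were HEPES pH 7.4 with 150 mM NaCl, plus 1 mM TCEP and 1 mM CaCl2 (50 mM HEPES) for S100A4 and S100B, 1 mM TCEP for Gal-1, and no additive for RecQ-WH. Immobilized protein at 64 µM was equilibrated 30 min with the LSM sublibrary, and unbound probes were measured by LC-MS.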

The target in assay [2] is T2, Gal-1. The description is as above. Type of assay: binding. The settings on record: 1:1 binding assumed, read-out: Surface mapping KD (apparent). An outline of the steps:
as §1

A further assay deals with T4, S100A4 (Homo sapiens, UniProt P26447).
T4 construct: made in house; host or cells: Escherichia coli BL21(DE3)
T4 sequence (P26447 whole entry): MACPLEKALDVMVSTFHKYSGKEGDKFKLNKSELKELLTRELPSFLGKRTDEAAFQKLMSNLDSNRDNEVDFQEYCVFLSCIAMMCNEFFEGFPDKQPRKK
The description is as above. It counts as binding. The conditions noted are these: 1:1 binding assumed, read-out: Surface mapping KD (apparent). In a few lines: as §1

Where two headings read alike, the source gives them in different places.

In the case of `C[C@@H](CC(=O)N[C@H]1CCCC[C@@H]1C(N)=O)NC(=O)[C@H]1CCCC[C@@H]1NC(=O)[C@H]1CCCC[C@@H]1NC(=O)C[C@H](CCCCN)NC(=O)[C@H]1CCCC[C@@H]1N` [H14 KA], the results for the Kd at CaM (H14 library), at Gal-1 [1] and at S100B (H14 library) were 318 µM, 465 µM and 319 µM, respectively.
For `NC(=O)[C@H]1CCCC[C@@H]1NC(=O)C[C@H](CC(=O)O)NC(=O)[C@H]1CCCC[C@@H]1NC(=O)[C@H]1CCCC[C@@H]1NC(=O)C[C@H](Cc1ccc(O)cc1)NC(=O)[C@H]1CCCC[C@@H]1N` [H14 YD], the results for the Kd at Gal-1 [1] and on Gal-1 [2] (H14 library) were 177 µM and 119 µM, respectively.
With `C[C@@H](O)[C@@H](CC(=O)N[C@H]1CCCC[C@@H]1C(N)=O)NC(=O)[C@H]1CCCC[C@@H]1NC(=O)[C@H]1CCCC[C@@H]1NC(=O)C[C@H](CCCCN)NC(=O)[C@H]1CCCC[C@@H]1N` [H14 KT], the Kd at CaM (H14 library) stood at 242 µM; at Gal-1 [1], 370 µM; on S100B (H14 library) it was 194 µM.
As to `NC(=O)[C@H]1CCCC[C@@H]1NC(=O)C[C@H](CCC(=O)O)NC(=O)[C@H]1CCCC[C@@H]1NC(=O)[C@H]1CCCC[C@@H]1NC(=O)C[C@H](CC(=O)O)NC(=O)[C@H]1CCCC[C@@H]1N` [H14 DE], on Gal-1 [1], the Kd is 318 µM.
As to `N=C(N)NCCC[C@@H](CC(=O)N[C@H]1CCCC[C@@H]1C(=O)N[C@H]1CCCC[C@@H]1C(=O)N[C@@H](CCC(N)=O)CC(=O)N[C@H]1CCCC[C@@H]1C(N)=O)NC(=O)[C@H]1CCCC[C@@H]1N` [H14 RQ], the values for the Kd on CaM (H14 library), on Gal-1 [1] and on S100B (H14 library) were 326 µM, 421 µM and 116 µM, respectively.
For `NC(=O)[C@H]1CCCC[C@@H]1NC(=O)C[C@H](CO)NC(=O)[C@H]1CCCC[C@@H]1NC(=O)[C@H]1CCCC[C@@H]1NC(=O)C[C@H](CC(=O)O)NC(=O)[C@H]1CCCC[C@@H]1N` [H14 DS], the Kd on Gal-1 [1] came out at 415 µM.
For `NC(=O)[C@H]1CCCC[C@@H]1NC(=O)C[C@H](CC(=O)O)NC(=O)[C@H]1CCCC[C@@H]1NC(=O)[C@H]1CCCC[C@@H]1NC(=O)C[C@H](CCC(=O)O)NC(=O)[C@H]1CCCC[C@@H]1N` [H14 ED], the Kd at Gal-1 [1] is 318 µM.
Same read-out and setting: with `C[C@@H](O)[C@@H](CC(=O)N[C@H]1CCCC[C@@H]1C(N)=O)NC(=O)[C@H]1CCCC[C@@H]1NC(=O)[C@H]1CCCC[C@@H]1NC(=O)C[C@H](CC(=O)O)NC(=O)[C@H]1CCCC[C@@H]1N` [H14 DT] the figure was 282 µM.
Consider `NC(=O)CC[C@@H](CC(=O)N[C@H]1CCCC[C@@H]1C(N)=O)NC(=O)[C@H]1CCCC[C@@H]1NC(=O)[C@H]1CCCC[C@@H]1NC(=O)C[C@H](CCC(=O)O)NC(=O)[C@H]1CCCC[C@@H]1N` [H14 EQ], for which the Kd on Gal-1 [1] stood at 443 µM.
Take `CC(C)[C@@H](CC(=O)N[C@H]1CCCC[C@@H]1C(N)=O)NC(=O)[C@H]1CCCC[C@@H]1NC(=O)[C@H]1CCCC[C@@H]1NC(=O)C[C@H](CC(=O)O)NC(=O)[C@H]1CCCC[C@@H]1N` [H14 DV]: at Gal-1 [1], the Kd is 316 µM.
In the case of `NC(=O)[C@H]1CCCC[C@@H]1NC(=O)C[C@H](CO)NC(=O)[C@H]1CCCC[C@@H]1NC(=O)[C@H]1CCCC[C@@H]1NC(=O)C[C@H](CCC(=O)O)NC(=O)[C@H]1CCCC[C@@H]1N` [H14 ES], the Kd at Gal-1 [1] is 282 µM.
On the same count and under the same terms, the value for `NC(=O)C[C@@H](CC(=O)N[C@H]1CCCC[C@@H]1C(N)=O)NC(=O)[C@H]1CCCC[C@@H]1NC(=O)[C@H]1CCCC[C@@H]1NC(=O)C[C@H](CCC(=O)O)NC(=O)[C@H]1CCCC[C@@H]1N` [H14 EN] was 453 µM.
Turning to `NC(=O)[C@H]1CCCC[C@@H]1NC(=O)C[C@H](CCC(=O)O)NC(=O)[C@H]1CCCC[C@@H]1NC(=O)[C@H]1CCCC[C@@H]1NC(=O)C[C@H](CCC(=O)O)NC(=O)[C@H]1CCCC[C@@H]1N` [H14 EE], the Kd at Gal-1 [1] was 353 µM.
Turning to `CC(C)C[C@@H](CC(=O)N[C@H]1CCCC[C@@H]1C(=O)N[C@H]1CCCC[C@@H]1C(=O)N[C@@H](CCC(N)=O)CC(=O)N[C@H]1CCCC[C@@H]1C(N)=O)NC(=O)[C@H]1CCCC[C@@H]1N` [H14 LQ], the Kd on CaM (H14 library) turned out to be 275 µM; at S100B (H14 library) it was 435 µM; at S100A4 (H14 library), 304 µM; on Gal-1 [2] (H14 library) it was 343 µM.
Turning to `CC(C)C[C@@H](CC(=O)N[C@H]1CCC[C@@H]1C(=O)N[C@H]1CCC[C@@H]1C(=O)N[C@H](CC(=O)N[C@H]1CCC[C@@H]1C(=O)N[C@H]1CCC[C@@H]1C(N)=O)Cc1ccccc1)NC(=O)[C@H]1CCC[C@@H]1NC(=O)[C@H]1CCC[C@@H]1N` [H12 LF], the Kd on CaM (H12 library) came out at 28 µM; on S100B (H12 library), 22 µM; at S100A4 (H12 library), 32 µM; at Gal-1 [2] (H12 library), 376 µM.
With `NC(=O)[C@H]1CCC[C@@H]1NC(=O)[C@H]1CCC[C@@H]1NC(=O)C[C@H](Cc1ccccc1)NC(=O)[C@H]1CCC[C@@H]1NC(=O)[C@H]1CCC[C@@H]1NC(=O)C[C@H](Cc1ccccc1)NC(=O)[C@H]1CCC[C@@H]1NC(=O)[C@H]1CCC[C@@H]1N` [H12 FF], the Kd on CaM (H12 library) is 21 µM; on S100B (H12 library) it was 14 µM; on S100A4 (H12 library) it was 125 µM; at Gal-1 [2] (H12 library) it was 130 µM.
For `CC(C)C[C@@H](CC(=O)N[C@H]1CCC[C@@H]1C(=O)N[C@H]1CCC[C@@H]1C(N)=O)NC(=O)[C@H]1CCC[C@@H]1NC(=O)[C@H]1CCC[C@@H]1NC(=O)C[C@H](Cc1ccccc1)NC(=O)[C@H]1CCC[C@@H]1NC(=O)[C@H]1CCC[C@@H]1N` [H12 FL] the same measures were 205 µM, 14 µM, 83 µM and 114 µM.
In the same order, the values of `CC[C@H](C)[C@@H](CC(=O)N[C@H]1CCC[C@@H]1C(=O)N[C@H]1CCC[C@@H]1C(N)=O)NC(=O)[C@H]1CCC[C@@H]1NC(=O)[C@H]1CCC[C@@H]1NC(=O)C[C@@H](NC(=O)[C@H]1CCC[C@@H]1NC(=O)[C@H]1CCC[C@@H]1N)C(C)C` [H12 VI] are 164 µM, 92 µM, 190 µM and 469 µM.
For `CC(C)C[C@@H](CC(=O)N[C@H]1CCC[C@@H]1C(=O)N[C@H]1CCC[C@@H]1C(N)=O)NC(=O)[C@H]1CCC[C@@H]1NC(=O)[C@H]1CCC[C@@H]1NC(=O)C[C@H](CC(C)C)NC(=O)[C@H]1CCC[C@@H]1NC(=O)[C@H]1CCC[C@@H]1N` [H12 LL] the same measures were 67 µM, 46 µM, 131 µM and 415 µM.

The values above are taken from paper PMC8162404, “Proteomimetic surface fragments distinguish targets by function” (Chemical Science, 2020).
